These results are taken from patent US7687640B2, “Cinnamide compound” (Eisai R&D Management Co., Ltd., priority 2004, dated 2010).

For the assay, the system named is Aβ42 production. Description: Quantification of Aβ peptide (Aβx-42 ELISA) in neuronal culture from rat fetus brain. The settings on record: primary neuronal culture from cerebral cortices of embryonic day 18 Wistar rat; compound added on day 4 of culture, incubation for 3 days; Aβx-42 in medium by ELISA, % of CTRL; read-out: Effect to Reduce Aβ42 Production IC50. The assay is classed as cell-based. On the procedure: Quantification of Aβ Peptide in Neuronal Culture from Rat Fetus Brain (1)
Primary neuronal cultures were prepared from cerebral cortices from embryonic day 18 Wistar rat (Charles River Japan, Yokohama, Japan). The embryos were aseptically removed from a pregnant rat under ether anesthesia. The brain was isolated from the embryo, and immersed in ice-cold L-15 medium (for example, Invitrogen Corp. Cat #11415-064, Carlsbad, Calif., USA, or SIGMA L1518, St. Louis. MO, USA). The cerebral cortex was collected under a stereoscopic microscope from the brain. The cerebral cortex fragments collected were subjected to enzyme treatment in an enzyme solution containing 0.25% trypsin (for example, Invitrogen Corp., Cat #15050-065, Carlsbad, Calif., USA) and 0.01% DNase (for example, Sigma D5025, St. Louis. MO, USA) at 37 C for 30 minutes to allow for cell dispersion. The enzyme reaction was terminated by addition of same volume of heat-inactivated horse serum. After centrifugation at 1500 rpm for 5 minutes, the supernatant was removed and 5-10 ml of medium was added to the cell pellet. Neurobasal Medium™ (Invitrogen Corp., Carlsbad, Calif., USA) supplemented with 2% B-27 supplement (Invitrogen Corp., Carlsbad, Calif., USA), 25 μM 2-mercaptoethanol (2-ME, WAKO, 139-06861, Osaka, Japan), 0.5 mM L-glutamine (for example, Invitrogen Corp., Cat # 25030-081, Carlsbad, Calif., USA), and 1% antibiotics-antimycotics (Invitrogen Corp., Cat # 15240-062, Carlsbad, Calif., USA) was used as the culture medium (Neurobasal/B27/2-ME). At the compound evaluation, the medium of the same composition not to add 2-ME alone (Neurobasal/B27) was used. The cell pellet was triturated by mild pipetting. Remaining cell pellet was removed by filtering through a 40-μm nylon mesh (Cell Strainer, Cat # 35-2340, Becton Dickinson Labware, Franklin Lakes, N.J., USA) and a neuronal cell suspension was obtained. The neuronal cell suspension was diluted with the Neurobasal/B27/2-ME medium and then plated in a volume of 100 μl/well to obtain an initial cell density of 5×10^5 cells/cm^2 in a 96-well polystyrene plate pre-coated with poly-L or D-lysine (for example, Falcon MICROTEST Tissue culture plate 96 well flat bottom with low evaporation lid (Cat # 35-3075, Becton Dickinson Labware, Franklin Lakes, N.J., USA) coated with poly-L-lysine using the method shown below, or BIOCOAT™ cell environments Poly-D-lysine cell ware 96-well plate, Cat # 35-6461, Becton Dickinson Labware, Franklin Lakes, N.J., USA). Poly-L-lysine coating was carried out as follows. Poly-L-lysine (SIGMA P2636, St. Louis, Mo., USA) solution at 100 μg/ml was prepared aseptically with 0.15 M Borate buffer (pH 8.5). The solution was added to a 96-well polystyrene […] at 50-100 μl/well and incubated at room temperature for one hour or more, or at 4 C overnight or longer. This was rinsed 4 or more times with sterile water, and then dried or rinsed with, for example, sterile PBS or medium, and used for plating cells. Cells were cultured for one day in an incubator of 5% CO2-95% air at 37 C, the entire amount of the medium was exchanged with fresh Neurobasal/B27/2-ME, and the cells were then cultured for further 3 days.
Drugs were added on day 4 of culture as follows. The entire amount of the medium was removed from culture well, and Neurobasal/B27 medium was added at 180 μl/well. The test compound dimethyl sulfoxide (hereinafter abbreviated as DMSO) solution was diluted with Neurobasal/B27 so than it would be 10-fold of the desired final concentration. A diluent was added at 20 μl/well and mixed well. The final concentration of DMSO was 1% or less. Only DMSO was added to the control group.
After incubation for 3 days, the entire amount of the medium was collected as ELISA sample. This was used without any dilution for Aβx-42 measurement, and diluted to 5-fold with the diluent supplied with ELISA kit for Aβx-40 measurement, before subjecting to respective ELISA assays. […]
(An ELISA detects its analyte on a solid surface through an enzyme-linked reagent.)

Counter-ions that a name gives are not always drawn.

Usually IC50 stands for the point on the concentration scale where inhibition reaches its midpoint. Consider `COc1cc(/C=C/C(=O)N[C@H]2CCOc3ccccc32)ccc1-n1cnc(C)c1` (mixture of isomers) [Example 414, (E)-N-[(4R) and (4S)-chroman-4-yl]-3-[3-methoxy-4-(4-methyl-1H-imidazol-1-yl)phenyl]acrylamide], for which the IC50 worked out at 130 nM.

In the case of `COc1cc(/C=C2\CCCN([C@H]3CCOc4ccccc43)C2=O)ccc1-n1cnc(C)c1` (mixture of isomers) [Example 420, (E)-1-[(4R) and (4S)-chroman-4-yl]-3-[3-methoxy-4-(4-methyl-1H-imidazol-1-yl)benzylidene]piperidin-2-one], the IC50 is 120 nM.

Turning to `COc1cc(/C=C2\CCCN([C@H](C)c3ccc(F)cc3F)C2=O)ccc1-n1cnc(C)c1` (mixture of isomers) [Example 621, (E)-1-[(1R) and (1S)-1-(2,4-difluorophenyl)ethyl]-3-[3-methoxy-4-(4-methyl-1H-imidazol-1-yl)benzylidene]piperidin-2-one], the IC50 turned out to be 100 nM.

With `COc1cc(C=C(F)C(=O)N[C@@H]2c3ccccc3C[C@@H]2O)ccc1-n1cnc(C)c1` (stereo in doubt) [Example 90, (E)-2-fluoro-N-[(1R,2S)-2-hydroxy-indan-1-yl]-3-[3-methoxy-4-(4-methyl-1H-imidazol-1-yl)phenyl]acrylamide], the IC50 turned out to be 240 nM.

In the case of `COc1cc(/C=C(\F)C(=O)NC2c3ccccc3-c3ccccc32)ccc1-n1cnc(C)c1` [Example 86, N-(9H-fluoren-9-yl)-2-fluoro-3-[3-methoxy-4-(4-methyl-1H-imidazol-1-yl)phenyl]acrylamide], the IC50 came to 320 nM.

Turning to `COc1cc(/C=C(\Cc2ccccc2)C(=O)N[C@@H]2c3ccccc3C[C@@H]2O)ccc1-n1cnc(C)c1` [Example 96, (E)-2-benzyl-N-[(1R,2S)-2-hydroxy-indan-1-yl]-3-[3-methoxy-4-(4-methyl-1H-imidazol-1-yl)phenyl]acrylamide trifluoroacetic acid salt], the IC50 was 220 nM.

As to `COc1cc(/C=C/C(=O)NCc2cccc(-c3ccccc3)c2)ccc1-n1cnc(C)c1` [Example 121, (E)-N-biphenyl-3-ylmethyl-3-(3-methoxy-4-(4-methyl-1H-imidazol-1-yl)phenyl)acrylic acid amide], the IC50 was found to be 70 nM.

On to `COc1cc(/C=C/C(=O)N[C@H]2CCc3ccccc32)ccc1-n1cnc(C)c1` [Example 122, (E)-N-[(1S)-indan-1-yl]-3-[3-methoxy-4-(4-methyl-1H-imidazol-1-yl)phenyl]acrylamide trifluoroacetic acid salt], for which the IC50 is 190 nM.

On to `COc1cc(/C=C/C(=O)N[C@@H](CF)Cc2ccccc2)ccc1-n1cnc(C)c1` [Example 139, (E)-N-[(1R)-fluoromethyl-2-phenylethyl]-3-[3-methoxy-4-(4-methyl-1H-imidazol-1-yl)phenyl]acrylic acid amide], for which the IC50 was found to be 200 nM.

For the compound `COc1cc(/C=C/C(=O)N2CCC(c3cc4ccccc4[nH]3)CC2)ccc1-n1cnc(C)c1` [Example 338, (E)-1-{4-(1H-indol-2-yl)piperidin-1-yl}-3-[3-methoxy-4-(4-methyl-1H-imidazol-1-yl)phenyl]propenone], the IC50 came out at 330 nM.

For `COc1cc(/C=C/C(=O)N2CCCC(c3ccc(F)cc3)CC2)ccc1-n1cnc(C)c1` (stereo not drawn) [Example 353, (E)-1-[4-(4-fluorophenyl)azepan-1-yl]-3-[3-methoxy-4-(4-methyl-1H-imidazol-1-yl)phenyl]propenone], the IC50 stood at 220 nM.

As for `COc1cc(/C=C/C(=O)N2CCC(c3cc4ccccc4n3CCO)CC2)ccc1-n1cnc(C)c1` [Example 366, (E)-1-{4-[1-(2-hydroxyethyl)-1H-indol-2-yl]piperidin-1-yl}-3-[3-methoxy-4-(4-methyl-1H-imidazol-1-yl)phenyl]propenone], the IC50 came to 330 nM.

For `COc1cc(/C=C2\CCCN(Cc3cccc(F)c3)C2=O)ccc1-n1cnc(C)c1` [Example 398, (E)-1-(3-fluorobenzyl)-3-[3-methoxy-4-(4-methyl-1H-imidazol-1-yl)benzylidene]piperidin-2-one], the IC50 amounted to 220 nM.

For `COc1cc(/C=C2\CCCN(Cc3cccc(I)c3)C2=O)ccc1-n1cnc(C)c1` [Example 402, (E)-1-(3-iodobenzyl)-3-[3-methoxy-4-(4-methyl-1H-imidazol-1-yl)benzylidene]piperidin-2-one monotrifluoroacetic acid salt], the IC50 came to 70 nM.

Regarding `COc1cc(/C=C2\CCCN(Cc3cc(Cl)nc(Cl)c3)C2=O)ccc1-n1cnc(C)c1` [Example 403, (E)-1-(2,6-dichloropyridine-4-ylmethyl)-3-[3-methoxy-4-(4-methyl-1H-imidazol-1-yl)benzylidene]piperidin-2-one], the IC50 turned out to be 90 nM.

Regarding `COc1cc(/C=C2\CCCN(Cc3ccc(F)c(F)c3)C2=O)ccc1-n1cnc(C)c1` [Example 416, (E)-1-(3,4-difluorobenzyl)-3-[3-methoxy-4-(4-methyl-1H-imidazol-1-yl)benzylidene]piperidin-2-one], the IC50 amounted to 100 nM.

Regarding `COc1cc(/C=C2\CCCN(C3Cc4ccccc4C3)C2=O)ccc1-n1cnc(C)c1` [Example 418, (E)-1-indan-2-yl-3-[3-methoxy-4-(4-methyl-1H-imidazol-1-yl)benzylidene]piperidin-2-one], the IC50 is 109 nM.

On to `COc1cc(/C=C2\CCCN([C@@H](C)c3ccc(F)cc3)C2=O)ccc1-n1cnc(C)c1` [Example 425, (E)-1-[(1S)-1-(4-fluorophenyl)ethyl]-3-[3-methoxy-4-(4-methyl-1H-imidazol-1-yl)benzylidene]piperidin-2-one], for which the IC50 came out at 80 nM.

As to `COc1cc(/C=C2\CCCN(Cc3cccc(Cl)n3)C2=O)ccc1-n1cnc(C)c1` [Example 427, (E)-1-[(6-chloropyridin-2-yl)methyl]-3-[3-methoxy-4-(4-methyl-1H-imidazol-1-yl)benzylidene]piperidin-2-one], the IC50 is 780 nM.

Turning to `COc1cc(/C=C2\CCCN(Cc3ccc(C(C)(C)C)cc3)C2=O)ccc1-n1cnc(C)c1` [Example 430, (E)-1-(4-tert-butylbenzyl)-3-[3-methoxy-4-(4-methyl-1H-imidazol-1-yl)benzylidene]piperidin-2-one], the IC50 is 119 nM.

As to `COc1cc(/C=C2\CCCN(Cc3ccc(F)c(F)c3)C2=O)cnc1-n1cnc(C)c1` [Example 611, (E)-1-(3,4-difluorobenzyl)-3-{[5-methoxy-6-(4-methyl-1H-imidazol-1-yl)pyridin-3-yl]methylene}piperidin-2-one], the IC50 is 265 nM.

Regarding `COc1cc(/C=C2\CCCN(C3(c4ccc(F)cc4)CCOCC3)C2=O)ccc1-n1cnc(C)c1` [Example 639, (E)-1-[4-(4-fluorophenyl)tetrahydropyran-4-yl)-3-(3-methoxy-4-(4-methyl-1H-imidazol-1-yl)benzylidene]piperidin-2-one], the IC50 was 56 nM.

`COc1cc(/C=C2\CCCN(C(C)c3c[nH]c4ccccc34)C2=O)ccc1-n1cnc(C)c1` [Example 965, (E)-1-[(1R) and (1S)-(1H-indol-3-yl)ethyl]-3-[3-methoxy-4-(4-methyl-1H-imidazol-1-yl)benzylidene]piperidin-2-one]: the IC50 was found to be 87 nM.

With `COc1cc(/C=C2\CCCN(C(c3ccc(F)cc3)C(C)C)C2=O)ccc1-n1cnc(C)c1` [Example 976, (E)-1-[(1S) and (1R)-1-(4-fluorophenyl)-2-methylpropyl]-3-[3-methoxy-4-(4-methyl-1H-imidazol-1-yl)benzylidene]piperidin-2-one], the IC50 is 80 nM.
